In patent US20100311748A1, “HETEROCYCLIC AMIDES USEFUL FOR THE TREATMENT OF CANCER AND PSORIASIS” (ASTRAZENECA AB, priority 2007, published 2010):

Tested on: Hedgehog pathway
Test: Hedgehog Pathway Cellular Differentiation Assay (alkaline phosphatase production in C3H10T1/2 cells with Shh ligand)
Assay type: cell-based
Settings: 3 μM compound, Shh ligand conditioned media, 72 h, alkaline phosphatase
Description: Hedgehog Pathway Cellular Differentiation Assay The ability of compounds of the invention to inhibit the Hedgehog pathway can be determined by the following cell differentiation assay. C3H10T1/2 cells were plated into 384 well plates at a concentration of 5000 cells/well in DMEM/10% FBS. The following day the media was changed to 20% conditioned media (low serum media DMEM/2% FBS+Shh ligand). Compounds were solubilized in 100% DMSO to a concentration of 10 mM and then serially diluted three fold in 100% DMSO. The highest concentration in the cell plate was 30 μM and the lowest was 3 nM. The compounds were then added to the cells. Cell plates were incubated with the compound for 72 h and then assayed for alkaline phosphatase production using pNp as a substrate. Briefly, after 72 h of incubation, the media was aspirated from the cells and washed with 30 μl of PBS. PBS was aspirated off the cells and 15 μl of 1×RIPA cell lysis buffer is added on to the cells. The cell plates are then incubated at −80° C. for 30 minutes to insure proper cell lysis. The plates were then thawed back to RT. The substrate solution containing pNp at 1 mg/mL in diethanolamine buffer pH 9.8 was then added onto the lysed cells. The plates were incubated at 30° C. for color development and read at an absorbance of 405 nm. The percent inhibition and IC50 value was then calculated from the absorbance data using standard procedures.

With Cc1ccc(-c2ccc3cc[nH]c3n2)cc1NC(=O)c1ccc(OCc2ccccn2)cc1 [Example 3, N-[5-(5,7-diazabicyclo[4.3.0]nona-2,4,8,10-tetraen-4-yl)-2-methyl-phenyl]-4-(pyridin-2-ylmethoxy)benzamide] the “% Inhibition at 3 μM” value was 67.3%.

Same assay, conditions: Mus musculus, C3H 10T1/2, 3 μM compound, Shh ligand conditioned media, 72 h, alkaline phosphatase

In order of falling inhibition at 3 µM:
1. Cc1ccc(-c2ncc(C(F)(F)F)[nH]2)cc1NC(=O)c1ccc(OCc2ccccn2)cc1 [Example 28, N-{2-methyl-5-[5-(trifluoromethyl)-1H-imidazol-2-yl]phenyl}-4-(pyridin-2-ylmethoxy)benzamide]  91.9%
2. Cc1nc(-c2ccc(C)c(NC(=O)c3ccc(OCc4ccccn4)cc3)c2)c[nH]1 [Example 24, N-[2-methyl-5-(2-methyl-1H-imidazol-4-yl)phenyl]-4-(pyridin-2-ylmethoxy)benzamide]  81.1%
3. Cc1ccc(-c2ccc(N)nn2)cc1NC(=O)c1ccc(OCc2ccccn2)cc1 [Example 15, N-[5-(6-aminopyridazin-3-yl)-2-methyl-phenyl]-4-(pyridin-2-ylmethoxy)benzamide]  80.7%
4. Cc1cnc(-c2ccc(C)c(NC(=O)c3ccc(OCc4ccccn4)cc3)c2)[nH]1 [Example 25, N-[2-methyl-5-(5-methyl-1H-imidazol-2-yl)phenyl]-4-(pyridin-2-ylmethoxy)benzamide]  79.5%
5. Cc1ccc(-c2nc3cc([N+](=O)[O-])ccc3[nH]2)cc1NC(=O)c1ccc(OCc2ccccn2)cc1 [Example 14, N-[2-methyl-5-(5-nitro-1H-benzoimidazol-2-yl)phenyl]-4-(pyridin-2-ylmethoxy)benzamide]  79.2%
6. Cc1ccc(-c2[nH]cnc2C)cc1NC(=O)c1ccc(OCc2ccccn2)cc1 [Example 27, N-[2-methyl-5-(4-methyl-1H-imidazol-5-yl)phenyl]-4-(pyridin-2-ylmethoxy)benzamide]  76.6%
7. Cc1cn(C)c(-c2ccc(C)c(NC(=O)c3ccc(OCc4ccccn4)cc3)c2)n1 [Example 26, N-[5-(1,4-dimethyl-1H-imidazol-2-yl)-2-methylphenyl]-4-(pyridin-2-ylmethoxy)benzamide]  75.7%
8. Cc1ccc(-c2ncc[nH]2)cc1NC(=O)c1ccc(OCc2ccccn2)cc1 [Example 29, N-[5-(1H-imidazol-2-yl)-2-methyl-phenyl]-4-(pyridin-2-ylmethoxy)benzamide]  75.3%
9. Cc1ccc(-c2ccncc2)cc1NC(=O)c1ccc(OCc2ccccn2)cc1 [Example 11, N-(2-methyl-5-pyridin-4-yl-phenyl)-4-(pyridin-2-ylmethoxy)benzamide]  75%
10. Cc1ccc(-c2ncc(CN3CCOCC3)s2)cc1NC(=O)c1ccc(OCc2ccccn2)cc1 [Example 12, N-[2-methyl-5-[5-(morpholin-4-ylmethyl)1,3-thiazol-2-yl]phenyl]-4-(pyridin-2-ylmethoxy)benzamide]  74.2%
11. Cc1ccc(-c2cnc(C)n2C)cc1NC(=O)c1ccc(OCc2ccccn2)cc1 [Example 23, N-[5-(1,2-dimethyl-1H-imidazol-5-yl)-2-methylphenyl]-4-(pyridin-2-ylmethoxy)benzamide]  73.6%
12. Cc1ccc(-c2cn(C)cn2)cc1NC(=O)c1ccc(OCc2ccccn2)cc1 [Example 21, N-[2-methyl-5-(1-methyl-1H-imidazol-4-yl)phenyl]-4-(pyridin-2-ylmethoxy)benzamide]  73.4%
13. Cc1ccc(-c2ncc(CN3CCN(C)CC3)s2)cc1NC(=O)c1ccc(OCc2ccccn2)cc1 [Example 2, N-[2-methyl-5-[5-[(4-methylpiperazin-1-yl)methyl]1,3-thiazol-2-yl]phenyl]-4-(pyridin-2-ylmethoxy)benzamide]  72.3%
14. Cc1ccc(-c2cccnc2)cc1NC(=O)c1ccc(OCc2ccccn2)cc1 [Example 7, N-(2-methyl-5-pyridin-3-yl-phenyl)-4-(pyridin-2-ylmethoxy)benzamide]  70.8%
15. Cc1ccc(-c2cn3ccsc3n2)cc1NC(=O)c1ccc(OCc2ccccn2)cc1 [Example 5, N-[2-methyl-5-(4-thia-1,6-diazabicyclo[3.3.0]octa-2,5,7-trien-7-yl)phenyl]-4-(pyridin-2-ylmethoxy)benzamide]  68.8%
16. Cc1ccc(-c2nccs2)cc1NC(=O)c1ccc(OCc2ccccn2)cc1 [Example 16, N-(2-methyl-5-1,3-thiazol-2-yl-phenyl)-4-(pyridin-2-ylmethoxy)benzamide]  68.6%
17. Cc1ccc(-c2cccc(N)n2)cc1NC(=O)c1ccc(OCc2ccccn2)cc1 [Example 8, N-[5-(6-aminopyridin-2-yl)-2-methyl-phenyl]-4-(pyridin-2-ylmethoxy)benzamide]  66.5%
18. Cc1ccc(-c2ccc(N)cn2)cc1NC(=O)c1ccc(OCc2ccccn2)cc1 [Example 6, N-[5-(5-aminopyridin-2-yl)-2-methyl-phenyl]-4-(pyridin-2-ylmethoxy)benzamide]  65.7%
19. Cc1ccc(-c2ncc(Cn3cccn3)s2)cc1NC(=O)c1ccc(OCc2ccccn2)cc1 [Example 4, N-[2-methyl-5-[5-(pyrazol-1-ylmethyl)1,3-thiazol-2-yl]phenyl]-4-(pyridin-2-ylmethoxy)benzamide]  65.4%
20. Cc1ccc(-c2c[nH]cn2)cc1NC(=O)c1ccc(OCc2ccccn2)cc1 [Example 1, N-[5-(1H-imidazol-4-yl)-2-methyl-phenyl]-4-(pyridin-2-ylmethoxy)benzamide]  64.9%
21. Cc1ccc(-c2nccn2C)cc1NC(=O)c1ccc(OCc2ccccn2)cc1 [Example 13, N-[2-methyl-5-(1-methylimidazol-2-yl)phenyl]-4-(pyridin-2-ylmethoxy)benzamide]  64.9%
22. Cc1ccc(-c2cnc(N)cn2)cc1NC(=O)c1ccc(OCc2ccccn2)cc1 [Example 10, N-[5-(5-aminopyrazin-2-yl)-2-methyl-phenyl]-4-(pyridin-2-ylmethoxy)benzamide]  63.5%
23. Cc1ccc(-c2cnc3ccccc3n2)cc1NC(=O)c1ccc(OCc2ccccn2)cc1 [Example 22, N-(2-methyl-5-quinoxalin-2-yl-phenyl)-4-(pyridin-2-ylmethoxy)benzamide]  60.7%
24. Cc1ccc(-c2ccccn2)cc1NC(=O)c1ccc(OCc2ccccn2)cc1 [Example 9, N-(2-methyl-5-pyridin-2-yl-phenyl)-4-(pyridin-2-ylmethoxy)benzamide]  60.5%
25. Cc1ccc(-c2ncc(C)n2C)cc1NC(=O)c1ccc(OCc2ccccn2)cc1 [Example 20, N-[5-(1,5-dimethylimidazol-2-yl)-2-methyl-phenyl]-4-(pyridin-2-ylmethoxy)benzamide]  58.1%
26. Cc1ccc(-c2nc3ccccc3s2)cc1NC(=O)c1ccc(OCc2ccccn2)cc1 [Example 17, N-(5-benzothiazol-2-yl-2-methyl-phenyl)-4-(pyridin-2-ylmethoxy)benzamide]  53.5%
27. CCOC(=O)c1sc(-c2ccc(C)c(NC(=O)c3ccc(OCc4ccccn4)cc3)c2)nc1C [Example 19, ethyl 4-methyl-2-[4-methyl-3-[[4-(pyridin-2-ylmethoxy)benzoyl]amino]phenyl]1,3-thiazole-5-carboxylate]  52%
28. Cc1ccc(-c2ncnc3nc[nH]c23)cc1NC(=O)c1ccc(OCc2ccccn2)cc1 [Example 18, N-[2-methyl-5-(7H-purin-6-yl)phenyl]-4-(pyridin-2-ylmethoxy)benzamide]  48.4%

Same assay, conditions: Mus musculus, C3H 10T1/2, Shh ligand conditioned media, 72 h, alkaline phosphatase (pNp, 405 nm)

Compared with Cc1ccc(-c2ccccn2)cc1NC(=O)c1ccc(OCc2ccccn2)cc1 [Example 9, N-(2-methyl-5-pyridin-2-yl-phenyl)-4-(pyridin-2-ylmethoxy)benzamide], Cc1ccc(-c2ncc(C)n2C)cc1NC(=O)c1ccc(OCc2ccccn2)cc1 [Example 20, N-[5-(1,5-dimethylimidazol-2-yl)-2-methyl-phenyl]-4-(pyridin-2-ylmethoxy)benzamide] is lower in IC50: 120 nM for the first, under 3 nM for the second.

With Cc1ccc(-c2ncnc3nc[nH]c23)cc1NC(=O)c1ccc(OCc2ccccn2)cc1 [Example 18, N-[2-methyl-5-(7H-purin-6-yl)phenyl]-4-(pyridin-2-ylmethoxy)benzamide] the IC50 was 30 nM.
